The source of these data is article PMC7795597 (2020).

Experiment [1] relates to kit2-kit* (DNA, G4) CGGGCGGGCGCGAGGGAGGGGAGGCGAGGAGGGGCGTGGCCGGC
Nature of the experiment: CD titration. As to conditions: K+ (150 mM in Methods, 100 mM in Figure S3 legend); 10 mM Tris, pH 7.5, 25 °C; 4 µM DNA.

Experiment [2] has as its system kit* (DNA, G4) GGCGAGGAGGGGCGTGGCCGGC
Nature of the experiment: CD titration. As to conditions: K+ (150 mM in Methods, 100 mM in Figure S3 legend); 10 mM Tris, pH 7.5, 25 °C; 4 µM DNA.

For experiment [3] the test system is unchanged. Nature of the experiment: SPR steady state. The note with it: 150 mM K+; 10 mM Tris, pH 7.5, 25 °C; apparent; one-site plus non-specific fit; DMSO < 1%.
In experiment [4] the test system is kit*5AP (DNA, G4, 2-aminopurine at 5 (replaces A)) GGCGAGGAGGGGCGTGGCCGGC
Nature of the experiment: 2-aminopurine fluorescence titration. The note with it: 150 mM K+; 10 mM Tris, pH 7.5, 25 °C; apparent; 0.5 µM DNA, single-site fit.

The test system of experiment [5] is kit*8AP (DNA, G4, 2-aminopurine at 8 (replaces A)) GGCGAGGAGGGGCGTGGCCGGC
The experiment can be described thus: 2-aminopurine fluorescence titration. As to conditions: 150 mM K+; 10 mM Tris, pH 7.5, 25 °C; apparent; 0.5 µM DNA, single-site fit.

On to `NCCCC[C@H](N)C(=O)NCCC(=O)Nc1cccc2c1C(=O)c1cccc(NC(=O)CCNC(=O)[C@@H](N)CCCCN)c1C2=O`, for which the binding entry in experiment [1] and in experiment [2] was “yes” throughout. In addition, the Kd in experiment [3] is 510 ± 90 nM; in experiment [4], 320 ± 20 nM; in experiment [5] it was 310 ± 20 nM.
For `C(=NNC1=NCCN1)c1cccc2cc3cccc(C=NNC4=NCCN4)c3cc12`, the binding entry in experiment [1] and in experiment [2] was “yes” throughout. For the same molecule, the Kd in experiment [3] is 6710 ± 1260 nM; in experiment [4], 2240 ± 170 nM; in experiment [5] it was 1780 ± 150 nM.
